Source: patent US9717708B1, “Process for preparing ertapenem-containing lyophilized formulation” (DAEWOONG PHARMACEUTICAL CO., LTD., priority 2014, dated 2017)

Tests used:
[1] = Purity (HPLC) before and after lyophilization and during storage, lyophilized formulation containing doripenem monohydrate; format: physicochemical; details: lyophilized formulations containing doripenem
Procedure: (§1) Hydroxypropyl β-cyclodextrin (HP-β-CD) [MS=0.65, 2.76 g (1.0 eq.)] was dissolved in distilled water (16 mL). After cooling the solution to 0˜5° C., 10 portions of ertapenem monosodium salt (1 g in total, each portion having the same amount) were sequentially added to the solution for 60 minutes, while maintaining pH 7.8 with a 2N NaOH solution. The resulting solution was sterile-filtered at 0˜5° C., filled in a vial, and then lyophilized as follows: The filled vial was located on the shelf of a lyophilizer pre-cooled to −40° C. and then cooled for 3 hours. Vacuum (80 mTorr) was applied to the shelf, which was then heated to −20° C. at the rate of 0.5° C./min. The shelf was maintained under the conditions of −20° C. and 80 mTorr for 48 hours. The shelf was heated to 10° C. at the rate of 0.1° C./min and then to 40° C. at the rate of 0.5° C./min. […]
(§2) We evaluated whether or not hydroxypropyl β-cyclodextrin can also function both as a cryoprotective agent and as a stabilizing agent in the lyophilized formulations containing carbapenem antibiotics other than ertapenem. […] The purities before the lyophilization, the purities right after the lyophilization, and the purities of the lyophilized formulations which were respectively stored at low temperature (−20° C.), at room temperature, and under the accelerated (40° C., RH75%) condition for 4 weeks were respectively measured with a HPLC. […]

[2] = Purity (HPLC) before and after lyophilization and during storage, lyophilized formulation containing meropenem trihydrate; format: physicochemical; details: lyophilized formulations containing meropenem
Procedure: as §1, §2

Structure (SMILES) | function of hydroxypropyl β-cyclodextrin as cryoprotective and stabilizing agent [1] | function of hydroxypropyl β-cyclodextrin as cryoprotective and stabilizing agent [2]
C[C@@H](O)[C@H]1C(=O)N2C(C(=O)O)=C(S[C@@H]3CN[C@H](CNS(N)(=O)=O)C3)[C@H](C)[C@H]12 [doripenem, doripenem monohydrate] | did not function as a cryoprotective agent nor as a stabilizing agent | 
C[C@@H](O)[C@H]1C(=O)N2C(C(=O)O)=C(S[C@@H]3CN[C@H](C(=O)N(C)C)C3)[C@H](C)[C@H]12 [meropenem, meropenem trihydrate] |  | did not function as a cryoprotective agent nor as a stabilizing agent
